Source: patent US20170129903A1, “COMPOUNDS COMPRISING 1,1a,2,5a-TETRAHYDROSPIRO[INDOLE-3,2a-PYRROLE]-2,5a-DIONE SYSTEM AS INHIBITORS P53-MDM2 PROTEIN-PROTEIN INTERACTION” (ADAMED SP. Z O.O., priority 2014, published 2017)

Key:
[1] = test system: SJSA-1 osteosarcoma cell line; test: MTT cell viability assay; format: cell-based; details: 72 h incubation, average of 2-5 experiments
Protocol: The effect of the invented p53-Mdm2 inhibitors on cell viability has been assessed using MTT assay. It is a colorimetric assay that measures conversion of tetrazolium ring of the soluble yellow dye (MTT) into insoluble purple formazan. This process is catalysed solely in mitochondrial dehydrogenases of living cells.
Cells were seeded on 96-well plates and then treated with successive dilutions of tested compounds. After 72 h incubation, MTT was added to the final concentration 0.5 mg/ml. The cells were further incubated for the next 4 h. Then the solution was drained and the remaining formazan crystals were dissolved in 100 μl DMSO. […] All the MTT experiments were independently repeated 2-5 times. Dose-dependent binding curves and IC50 values were calculated using GraphPad Prism 5.

[2] = target: T1, p53-Mdm2 interaction (N-terminal domain of Mdm2 protein, amino acids 1-111) (Homo sapiens, UniProt Q00987); test: Fluorescence polarization (FP) binding assay of p53-Mdm2 interaction; details: FP assay, 130 nM Mdm2, FAM-labelled p53 peptide; Ki transformed from IC50 using Kenakin equation
T1 construct: N-terminal domain of Mdm2 protein (amino acids 1-111)
T1 sequence (Q00987 1-111): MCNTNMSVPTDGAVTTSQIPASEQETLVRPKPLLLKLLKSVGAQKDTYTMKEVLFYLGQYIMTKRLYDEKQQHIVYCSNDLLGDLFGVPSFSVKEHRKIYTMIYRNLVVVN
Protocol: The inhibition of p53-Mdm2 interaction was measured using a fluorescence polarization (FP) binding assay. FP measures the rotational movement of molecules in a homogenous suspension. For this assay, N-terminal domain of Mdm2 protein (amino acids 1-111) is combined with a fluorescein-labelled (FAM) peptide derived from p53 trans-activation domain. Upon excitation of the fluorescent ligand with linearly polarized light, […]. If the peptide is bound by Mdm2, rotation will slow down and the perpendicular component will decrease. Disruption of the formation of the peptide-Mdm2 complex due to an inhibitor molecule binding to the p53 binding site of Mdm2 results in faster rotation of the peptide.
Fluorescence polarization experiments were read on Tecan Infinite M1000 reader with the 470 nm excitation and 520 nm emission filters for fluorescein. The fluorescence polarization was measured in black 96-well plates (Corning, CLS3991) in room temperature. Purity of Mdm2 was controlled at >95%. Reaction buffer was optimized by adding 5 mM DTT and 0.1% zwitterionic detergent CHAPS to reduce effect of nonspecific interactions.
The test was performed by combining successive dilution of compounds diluted in dimethyl sulfoxide (DMSO, 5% final concentration) with 130 nM Mdm2 in reaction buffer (PBS, 0.1% CHAPS, 5 mM DTT (dithiothreitol)). After 15 minutes of incubation in room temperature […] FAM-labelled peptide was added. Final reading was performed after 90 minutes of incubation. Dose-dependent binding curves and IC50 values were calculated using GraphPad Prism5 and next transformed to Ki values using Kenakin equation.

Structure (SMILES) | IC50 ([1]; Homo sapiens, SJSA-1, 72 h) [µM] | Ki [2] [nM] | IC50 [1] [µM]
COc1ccc(C(=O)NCCO)cc1-n1cc2c(c1C(C)C)C1(C(=O)Nc3cc(Cl)ccc31)N(c1cc(Cl)ccc1C)C2=O (stereo not drawn) [Compound 100, 3-[6-chloro-2′-(5-chloro-2-methylphenyl)-2,3′-dioxo-6′-(propan-2-yl)-1,2,3′,5′-tetrahydro-2′H-spiro[indole-3,1′-pyrrolo [3,4-c]pyrrole]-5′-yl]-N-(2-hydroxyethyl)-4-methoxybenzamide] | 1.21 | 3.5 | –
COc1ccc(-n2nc3c(c2C(C)C)C2(C(=O)Nc4cc(Cl)ccc42)N(c2cc(Cl)ccc2C)C3=O)c(OC)n1 (stereo not drawn) [Compound 114, 6-chloro-5′-(5-chloro-2-methylphenyl)-2′-(2,6-dimethoxypyridin-3-yl)-3′-(propan-2-yl)-1,2,5′,6′-tetrahydro-2′H-spiro[indole-3,4′-pyrrolo[3,4-c]pyrazole]-2,6′-dione] | 0.29 | 3.3 | –
Cc1ncc(Cl)cc1N1C(=O)c2n[nH]c(C(C)C)c2C12C(=O)Nc1cc(Cl)ccc12 (stereo not drawn) [Compound 84, 6-chloro-5′-(5-chloro-2-methylpyridin-3-yl)-3′-(propan-2-yl)-1,2,5′,6′-tetrahydro-2′H-spiro[indole-3,4′-pyrrolo[3,4-c]pyrazole]-2,6′-dione] | 46.1 | 152 | –
COc1ccccc1-n1nc2c(c1C(C)C)C1(C(=O)Nc3cc(Cl)ccc31)N(c1cc(Cl)ccc1C)C2=O (stereo not drawn) [Compound 31, 6-chloro-5′-(5-chloro-2-methylphenyl)-2′-(2-methoxyphenyl)-3′-(propan-2-yl)-1,2,5′,6′-tetrahydro-2′H-spiro[indole-3,4′-pyrrolo[3,4-c]pyrazole]-2,6′-dione] | 0.53 | 4.7 | –
Cc1ccc(Cl)cc1N1C(=O)c2nn(-c3ccccc3C)c(C(C)C)c2C12C(=O)Nc1cc(Cl)ccc12 (stereo not drawn) [Compound 68, 6-chloro-5′-(5-chloro-2-methylphenyl)-2′-(2-methylphenyl)-3′-(propan-2-yl)-1,2,5′,6′-tetrahydro-2′H-spiro[indole-3,4′-pyrrolo[3,4-c]pyrazole]-2,6′-dione] | 6.35 | 46 | –
COc1ccccc1-n1nc2c(c1C(C)C)[C@@]1(C(=O)Nc3cc(Cl)ccc31)N(c1cncc(Cl)c1)C2=O [Compound 88, (3S)-6-chloro-5′-(5-chloropyridin-3-yl)-2′-(2-methoxyphenyl)-3′-(propan-2-yl)-1,2,5′,6′-tetrahydro-2′H-spiro[indole-3,4′-pyrrolo[3,4-c]pyrazole]-2,6′-dione] | – | 1.9 | 0.34
COc1ccc(Cl)cc1N1C(=O)c2nn(-c3ccccc3OC)c(C(C)C)c2C12C(=O)Nc1cc(Cl)ccc12 (stereo not drawn) [Compound 30, 6-chloro-5′-(5-chloro-2-methoxyphenyl)-2′-(2-methoxyphenyl)-3′-(propan-2-yl)-1,2,5′,6′-tetrahydro-2′H-spiro[indole-3,4′-pyrrolo[3,4-c]pyrazole]-2,6′-dione] | 1.36 | 8.2 | –
CCc1ccccc1-n1nc2c(c1C(C)C)C1(C(=O)Nc3cc(Cl)ccc31)N(c1cc(Cl)ccc1C)C2=O (stereo not drawn) [Compound 67, 6-chloro-5′-(5-chloro-2-methylphenyl)-2′-(2-ethylphenyl)-3′-(propan-2-yl)-1,2,5′,6′-tetrahydro-2′H-spiro[indole-3,4′-pyrrolo [3,4-c]pyrazole]-2,6′-dione] | 12.4 | 86 | –
COc1ccc(-n2cc3c(c2C(C)C)[C@@]2(C(=O)Nc4cc(Cl)ccc42)N(c2cc(Cl)cnc2C)C3=O)c(OC)c1 [Compound 111, (3S)-6-chloro-2′-(5-chloro-2-methyl-pyridin-3-yl)-5′-(2,4-dimethoxyphenyl)-6′-(propan-2-yl)-1,2,3′,5′-tetrahydro-2′H-spiro[indole-3,1′-pyrrolo[3,4-c]pyrrole]-2,3′-dione] | 0.12 | 2.8 | –
COc1ccc(NC(C)=O)cc1-n1cc2c(c1C(C)C)C1(C(=O)Nc3cc(Cl)ccc31)N(c1cc(Cl)ccc1C)C2=O (stereo not drawn) [Compound 97, N-{3-[6-chloro-2′-(5-chloro-2-methylphenyl)-2,3′-dioxo-6′-(propan-2-yl)-1,2,3′,5′-tetrahydro-2′H-spiro[indole-3,1′-pyrrolo[3,4-c]pyrrole]-5′-yl]-4-methoxyphenyl}acetamide] | 0.3 | 3.4 | –
COc1ccccc1-n1cc2c(c1C(C)C)C1(C(=O)Nc3cc(Cl)ccc31)N(c1cc(Cl)ccc1C(N)=O)C2=O (stereo not drawn) [Compound 99, 4-chloro-2-[6-chloro-5′-(2-methoxy-phenyl)-2,3′-dioxo-6′-(propan-2-yl)-1,2,3′,5′-tetrahydro-2′H-spiro[indole-3,1′-pyrrolo[3,4-c]pyrrole]-2′-yl]benzamide] | 0.65 | 6.7 | –
O=C(O)CSC1=C(c2ccccc2)C2(C(=O)Nc3cc(Cl)ccc32)N(c2cccc(Cl)c2)C1=O (stereo not drawn) [Compound 51, 2-[6-chloro-1′-(3-chlorophenyl)-2,5′-dioxo-3′-phenyl-1,1′,2,5′-tetrahydrospiro [indole-3,2′-pyrrole]-4′-ylsulfanyl]acetic acid] | – | 130 | –
COc1ccc(Cl)cc1N1C(=O)C(O)=C(C(=O)C2(C)CC2)C12C(=O)Nc1cc(Cl)ccc12 (stereo not drawn) [Compound 7, 6-chloro-1′-(5-chloro-2-methoxyphenyl)-4′-hydroxy-3′-(1-methylcyclopropane-carbonyl)-1,1′,2,5′-tetrahydrospiro[indole-3,2′-pyrrole]-2,5′-dione] | – | 700 | –
CCC(C)SC1=C(O)C(=O)N(c2cccc(Cl)c2)C12C(=O)Nc1cc(Cl)ccc12 (stereo not drawn) [Compound 57, 3′-(butan-2-ylsulfanyl)-6-chloro-1′-(3-chlorophenyl)-4′-hydroxy-1,1′,2,5′-tetrahydrospiro[indole-3,2′-pyrrole]-2,5′-dione] | – | 79 | –
O=C1C(O)=C(c2ccccc2)C2(C(=O)Nc3ccccc32)N1c1cccc(Cl)c1 (stereo not drawn) [Compound 39, 1′-(3-chlorophenyl)-4′-hydroxy-3′-phenyl-1,1′,2,5′-tetrahydrospiro[indole-3,2′-pyrrole]-2,5′-dione] | – | 750 | –
O=C(C1=C(O)C(=O)N(c2cccc(Cl)c2)C12C(=O)Nc1cc(Cl)ccc12)c1ccccc1 (stereo not drawn) [Compound 3, 3′-benzoyl-6-chloro-1′-(3-chlorophenyl)-4′-hydroxy-1,1′,2,5′-tetrahydrospiro[indole-3,2′-pyrrole]-2,5′-dione] | – | 51 | –
O=C1C(O)=C(c2cccc(Cl)c2)C2(C(=O)Nc3cc(Cl)ccc32)N1c1ccccc1 (stereo not drawn) [Compound 37, 6-chloro-3′-(3-chlorophenyl)-4′-hydroxy-1′-phenyl-1,1′,2,5′-tetrahydrospiro[indole-3,2′-pyrrole]-2,5′-dione] | – | 190 | –
COc1ccc(C(N)=O)cc1-n1nc2c(c1C(C)C)C1(C(=O)Nc3cc(Cl)ccc31)N(c1cc(Cl)ccc1O)C2=O (stereo not drawn) [Compound 75, 3-[6-chloro-5′-(5-chloro-2-hydroxy-phenyl)-2,6′-dioxo-3′-(propan-2-yl)-1,2,5′,6′-tetrahydro-2′H-spiro[indole-3,4′-pyrrolo[3,4-c]pyrazole]-2′-yl]-4-methoxybenzamide] | – | 3.6 | –
Cc1ccc(Cl)cc1N1C(=O)C(O)=C(C(=O)C2(C)CC2)C12C(=O)Nc1cc(Cl)ccc12 (stereo not drawn) [Compound 2, 6-chloro-1′-(5-chloro-2-methylphenyl)-4′-hydroxy-3′-(1-methylcyclopropane-carbonyl)-1,1′,2,5′-tetrahydrospiro[indole-3,2′-pyrrole]-2,5′-dione] | – | 122 | –
